Reference: PMC8867915, “Amyloid and Hydrogel Formation of a Peptide Sequence from a Coronavirus Spike Protein” (ACS Nano, 2022)

Tests used:
[1] = Rheology of peptide gel (frequency sweep of shear moduli); format: physicochemical; conditions: 1 wt % peptide gel at pH 4.4; cone and plate; constant stress 30 Pa; ω = 100 rad s^–1
Source text: (§1) Peptide […] is able to form a hydrogel under precisely defined conditions. […] The apple-green birefringence of the peptide gel stained with Congo red (Figure 6b) together with TEM images (Figure 6c) reveal that the hydrogel comprises a tight network of 20–50 nm wide peptide nanotapes. The viscoelastic response of the gel was studied by rheology. The linear regime was first identified by strain sweep experiments (Figure S5). The elastic modulus G′ > G′′ (the shear loss modulus) and G′ is weakly dependent on frequency and reaches a value >10^5 Pa at a high frequency (ω = 100 rad s^–1). These are all characteristic rheological signatures of gels, and the high frequency value of G′ is higher than that observed for many peptide hydrogels.[48] The FTIR spectrum shown in Figure 6e is very similar to that discussed for the solutions of 1 wt % […] at pH 4 and 5 and is consistent with a β-sheet secondary structure. The SAXS data was again fitted using a model form factor of Gaussian bilayers (Figure 6f). The XRD data is characterized by strong diffraction peaks at 10 and 4.7 Å, consistent with an amyloid cross-β diffraction pattern.[12],[49]−[51] The other weaker peaks can also be ascribed to β-sheet features.[49],[52]−[57]
Dynamic shear moduli were measured using a controlled stress AR-2000 rheometer from TA Instruments. […]

[2] = Hydrogel formation (tube inversion) as a function of pH; format: physicochemical; conditions: 1 wt % peptide in aqueous NaOH; cloudy gel, does not flow under tube inversion; liquid at the other pH values studied (pH 3-12)
Source text: as §1, with “The XRD data is characterized by strong diffraction peaks at 10 and 4.7 Å, consistent with an amyloid cross-β diffraction pattern.[12],[49]−[51] The other weaker peaks can also be ascribed to β-sheet features.[49],[52]−[57]” left out
Peptide […] was supplied by Peptide Synthetics (Peptide Protein Research Limited), Fareham, UK as a TFA salt. The molar mass by electrospray mass spectrometry is 1405.595 g mol^–1 and the purity is >95%, determined by high performance liquid chromatography (HPLC) in a gradient HPLC using an acetonitrile (0.1% TFA)/water (0.1% TFA) gradient with a Kinetex 2.6u XB-C18 100A column. […]

## RSAIEDLLFDKV
[1]
  shear elastic modulus G′ at high frequency: > 10^5 Pa
[2]
  pH at which hydrogel formation is observed: 4.4 pH
